Results from patent US11401286B2 (Tetra Discovery Partners, LLC, priority 2012, dated 2022).
Structures can show the parent of a compound that is named as a salt.

target: PDE4D7 (Homo sapiens (Human), UniProt Q08499); conditions: read-out: PDE4D7 IC50
Sequence (Q08499 other isoform, or with tags, fused parts or gaps): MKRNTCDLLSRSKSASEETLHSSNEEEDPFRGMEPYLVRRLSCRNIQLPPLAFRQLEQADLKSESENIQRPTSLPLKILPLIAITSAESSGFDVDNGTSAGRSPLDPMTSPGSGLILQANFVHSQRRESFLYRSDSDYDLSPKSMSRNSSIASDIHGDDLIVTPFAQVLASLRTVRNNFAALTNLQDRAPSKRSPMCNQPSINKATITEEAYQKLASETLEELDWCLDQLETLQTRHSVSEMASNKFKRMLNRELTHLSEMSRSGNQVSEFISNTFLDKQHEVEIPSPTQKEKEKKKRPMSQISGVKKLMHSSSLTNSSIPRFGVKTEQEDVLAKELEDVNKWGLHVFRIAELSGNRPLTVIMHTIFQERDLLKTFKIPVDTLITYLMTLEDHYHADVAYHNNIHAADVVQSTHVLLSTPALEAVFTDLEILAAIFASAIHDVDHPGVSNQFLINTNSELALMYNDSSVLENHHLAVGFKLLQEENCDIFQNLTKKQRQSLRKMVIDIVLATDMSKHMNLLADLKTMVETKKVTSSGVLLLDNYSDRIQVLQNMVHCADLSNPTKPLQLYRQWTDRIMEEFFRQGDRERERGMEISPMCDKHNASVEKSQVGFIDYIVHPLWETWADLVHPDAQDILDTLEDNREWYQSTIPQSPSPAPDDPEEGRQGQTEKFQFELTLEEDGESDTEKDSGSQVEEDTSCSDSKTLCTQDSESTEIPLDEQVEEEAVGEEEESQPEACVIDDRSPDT

Structure (SMILES) | IC50 [nM]
O=C(O)COc1ccc(Nc2cc(-c3cccc(Cl)c3)nc3c2CCC3)cc1 [Example 4, 2-[4-[[2-(3-Chlorophenyl)-6,7-dihydro-5H-cyclopenta[b]pyridin-4-yl]amino]phenoxy]acetic acid] | > 1000
CCc1nc(Nc2ccc(CO)cc2)nc(-c2cccc(Cl)c2)n1 [Example 80, (4-((4-(3-Chlorophenyl)-6-ethyl-1,3,5-triazin-2-yl)amino)phenyl)methanol] | < 1000
CCc1cc(Oc2ccc(CCO)cc2)nc(-c2cccc(Cl)c2)n1 [Example 182, 2-(4-((2-(3-Chlorophenyl)-6-ethylpyrimidin-4-yl)oxy)phenyl)ethanol] | < 1000
C[C@@H]1CN(c2cc(Nc3ccc(CC(N)=O)cc3)c3c(n2)CCC3)CCN1 [Example 255, (R)-2-(4-((2-(3-Methylpiperazin-1-yl)-6,7-dihydro-5H-cyclopenta[b]pyridin-4-yl)amino)phenyl)acetamide hydrochloride] | > 1000

same assay, conditions: read-out: PDE4D7 IC50; PDE4D7 without asterisk

Structure (SMILES) | IC50 [nM]
C=Cc1ccc(Nc2nc(-c3cccc(Cl)c3)nc3c2CCC3)cc1 [Example 174, 2-(3-Chlorophenyl)-N-(4-vinylphenyl)-6,7-dihydro-5H-cyclopenta[d]pyrimidin-4-amine] | > 1000
NC(=O)Cc1ccc(Nc2cc(SC3CCCC3)nc3c2CCC3)cc1 [Example 258, 2-(4-((2-(Cyclopentylthio)-6,7-dihydro-5H-cyclopenta[b]pyridin-4-yl)amino)phenyl)acetamide] | > 1000
OCCc1ccc(Nc2cc(C(F)(F)F)nc(OC3CCCC3)n2)cc1 [Example 199, 2-(4-((2-(Cyclopentyloxy)-6-(trifluoromethyl)pyrimidin-4-yl)amino)phenyl)ethanol] | < 1000
OCc1ccc(Nc2cc(-c3cccc(Cl)c3)nc3c2CCC3)cc1 [Example 88, (4-((2-(3-Chlorophenyl)-6,7-dihydro-5H-cyclopenta[b]pyridin-4-yl)amino)phenyl)methanol] | > 1000
OB1OCc2cc(Nc3nc(-c4ccc(Cl)cc4)nc4c3CCC4)ccc21 [Example 295, 2-(4-Chlorophenyl)-N-(1-hydroxy-3H-2,1-benzoxaborol-5-yl)-6,7-dihydro-5H-cyclopenta[d]pyrimidin-4-amine] | > 1000
N#CCc1ccc(Nc2c(Cl)c(-c3cccc(Cl)c3)nc3c2CCC3)cc1 [Example 291, 2-(4-((3-Chloro-2-(3-chlorophenyl)-6,7-dihydro-5H-cyclopenta[b]pyridin-4-yl)amino)phenyl)acetonitrile hydrochloride] | > 1000
CCc1cc(Cc2ccc(CCO)cc2)nc(C2CCCC2)n1 [Example 225, 2-(4-((2-Cyclopentyl-6-ethylpyrimidin-4-yl)methyl)phenyl)ethanol] | > 1000
OCCc1ccc(Nc2cc(-c3ncco3)nc3c2CCC3)cc1 [Example 241, 2-(4-((2-(Oxazol-2-yl)-6,7-dihydro-5H-cyclopenta[b]pyridin-4-yl)amino)phenyl)ethanol] | > 1000
NC(=O)Cc1ccc(Nc2nc(-c3cccc(Cl)c3)nc3c2SCC3)cc1 [Example 280, 2-(4-((2-(3-chlorophenyl)-6,7-dihydrothieno[3,2-d]pyrimidin-4-yl)amino)phenyl)acetamide] | < 1000
CC(C)c1nc(Nc2ccc(F)cc2)nc(-c2ccc(Cl)s2)n1 [Example 26, 4-(5-chlorothiophen-2-yl)-N-(4-fluorophenyl)-6-isopropyl-1,3,5-triazin-2-amine] | > 1000
Clc1ccc(-c2nc(Nc3ccc(Cc4nnn[nH]4)cc3)cc(C3CC3)n2)s1 [Example 298, 2-(5-Chloro-2-thienyl)-6-cyclopropyl-N-[4-(1H-tetrazol-5-ylmethyl)phenyl]pyrimidin-4-amine] | > 1000
NC(=O)Cc1ccc(Cc2cc(-c3cccc(Cl)c3)nc3c2CCC3)cc1 [Example 125, 2-(4-((2-(3-Chlorophenyl)-6,7-dihydro-5H-cyclopenta[b]pyridin-4-yl)methyl)phenyl)acetamide hydrochloride] | > 1000
CCc1nc(Nc2ccc(F)cc2)nc(-c2ccc(Cl)s2)n1 [Example 28, 4-(5-chlorothiophen-2-yl)-6-ethyl-N-(4-fluorophenyl)-1,3,5-triazin-2-amine] | > 1000
NC(=O)CCc1ccc(Nc2nc(-c3cccc(Cl)c3)nc3c2CCC3)cc1 [Example 167, 3-(4-((2-(3-Chlorophenyl)-6,7-dihydro-5H-cyclopenta[d]pyrimidin-4-yl)amino)phenyl)propanamide] | > 1000
O=C(O)Cc1ccc(Oc2nc(-c3cccc(Cl)c3)nc(C3CC3)n2)cc1 [Example 43, 2-(4-((4-(3-chlorophenyl)-6-cyclopropyl-1,3,5-triazin-2-yl)oxy)phenyl)acetic acid] | > 1000
COC(=O)Cc1ccc(Cc2cc(C(F)(F)F)nc(-c3cccc(Cl)c3)n2)cc1 [Example 203, Methyl 2-(4-((2-(3-chlorophenyl)-6-(trifluoromethyl)pyrimidin-4-yl)methyl)phenyl)acetate] | > 1000
FC(F)(F)Cc1ccc(Nc2cc(-c3cccc(Cl)c3)nc3c2CCC3)cc1 [Example 110, 2-(3-Chlorophenyl)-N-(4-(2,2,2-trifluoroethyl)phenyl)-6,7-dihydro-5H-cyclopenta[b]pyridin-4-amine hydrochloride] | > 1000
Clc1cccc(-c2nc3c(c(Nc4ccccc4)n2)CCC3)c1 [Example 166, 2-(3-Chlorophenyl)-N-phenyl-6,7-dihydro-5H-cyclopenta[d]pyrimidin-4-amine] | > 1000

Structure (SMILES) | IC50 [nM]
NC(=O)Cc1ccc(Cc2nc(-c3cccc(Cl)c3)nc3c2CCC3)cc1 [Example 68, 2-(4-((2-(3-chlorophenyl)-6,7-dihydro-5H-cyclopenta[d]pyrimidin-4-yl)methyl)phenyl)acetamide] | > 1000
OCCc1ccc(Nc2cc(C3CCCCC3)nc3c2CCC3)cc1 [Example 251, 2-(4-((2-cyclohexyl-6,7-dihydro-5H-cyclopenta[b]pyridin-4-yl)amino)phenyl)ethanol hydrochloride] | > 1000
NC(=O)Cc1ccc(Nc2nc(OC3CCCC3)nc3c2CCC3)cc1 [Example 232, 2-(4-((2-(Cyclopentyloxy)-6,7-dihydro-5H-cyclopenta[d]pyrimidin-4-yl)amino)phenyl)acetamide] | > 1000
CCc1nc(Nc2ccc(CC#N)cc2)nc(-c2cccc(Cl)c2)n1 [Example 52, 2-(4-(4-(3-chlorophenyl)-6-ethyl-1,3,5-triazin-2-ylamino)phenyl)acetonitrile] | < 1000
CCc1cc(Nc2ccc(CC(N)=O)cc2)nc(-c2cccc(Cl)c2)n1 [Example 171, 2-(4-((2-(3-Chlorophenyl)-6-ethylpyrimidin-4-yl)amino)phenyl)acetamide] | < 1000
CC(C)(O)Cc1ccc(Nc2cc(-c3cccc(Cl)c3)nc3c2CCC3)cc1 [Example 98, 1-(4-((2-(3-Chlorophenyl)-6,7-dihydro-5H-cyclopenta[b]pyridin-4-yl)amino)phenyl)-2-methylpropan-2-ol] | > 1000
NS(=O)(=O)Cc1ccc(Nc2nc(-c3cccc(Cl)c3)nc3c2CCC3)cc1 [Example 180, (4-((2-(3-Chlorophenyl)-6,7-dihydro-5H-cyclopenta[d]pyrimidin-4-yl)amino)phenyl)methanesulfonamide] | > 1000
CC(C)(C(N)=O)c1ccc(Cc2cc(-c3cccc(Cl)c3)nc3c2CCC3)cc1 [Example 127, 2-(4-((2-(3-Chlorophenyl)-6,7-dihydro-5H-cyclopenta[b]pyridin-4-yl)methyl)phenyl)-2-methylpropanamide hydrochloride] | > 1000
NC(=O)Cc1ccc(Nc2cc(N3CCCC3)nc3c2CCC3)cc1 [Example 236, 2-(4-((2-(Pyrrolidin-1-yl)-6,7-dihydro-5H-cyclopenta[b]pyridin-4-yl)amino)phenyl)acetamide hydrochloride] | > 1000
CC(Cc1ccc(Nc2cc(-c3cccc(Cl)c3)nc3c2CCC3)cc1)(C(N)=O)C(N)=O [Example 124, 2-(4-((2-(3-Chlorophenyl)-6,7-dihydro-5H-cyclopenta[b]pyridin-4-yl)amino)benzyl)-2-methylmalonamide hydrochloride] | > 1000
NC(=O)Cc1ccc(Nc2nc(-c3ccc(Cl)s3)nc3c2CCC3)cc1 [Example 20, 2-[4-[[2-(5-chloro-2-thienyl)-6,7-dihydro-5H-cyclopenta[d]pyrimidin-4-yl]amino]phenyl]acetamide] | < 1000
CC(CO)Oc1ccc(Nc2cc(-c3cccc(Cl)c3)nc3c2CCC3)cc1 (stereo not shown) [Example 117, 2-(4-((2-(3-Chlorophenyl)-6,7-dihydro-5H-cyclopenta[b]pyridin-4-yl)amino)phenoxy)propan-1-ol hydrochloride] | > 1000
CCc1cc(Nc2ccc(CC(N)=O)cc2)nc(C2CCCC2)n1 [Example 221, 2-(4-((2-Cyclopentyl-6-ethylpyrimidin-4-yl)amino)phenyl)acetamide] | < 1000
OCC(O)c1ccc(Nc2cc(-c3cccc(Cl)c3)nc3c2CCC3)cc1 (stereo not shown) [Example 115, 1-(4-((2-(3-Chlorophenyl)-6,7-dihydro-5H-cyclopenta[b]pyridin-4-yl)amino)phenyl)ethane-1,2-diol hydrochloride] | > 1000
CC(=O)Cc1ccc(Nc2nc(-c3cccc(Cl)c3)nc3c2CCC3)cc1 [Example 164, 1-(4-((2-(3-Chlorophenyl)-6,7-dihydro-5H-cyclopenta[d]pyrimidin-4-yl)amino)phenyl)propan-2-one] | > 1000
NC(=O)Cc1ccc(Cc2cc(C(F)(F)F)nc(OC3CCCC3)n2)cc1 [Example 201, 2-(4-((2-(Cyclopentyloxy)-6-(trifluoromethyl)pyrimidin-4-yl)methyl)phenyl)acetamide] | > 1000
CC(O)Cc1ccc(Nc2cc(-c3cccc(Cl)c3)nc3c2CCC3)cc1 (stereo not shown) [Example 104, 1-(4-((2-(3-Chlorophenyl)-6,7-dihydro-5H-cyclopenta[b]pyridin-4-yl)amino)phenyl)propan-2-ol] | > 1000
NC(=O)Cc1ccc(Nc2cc(-c3cccc(Cl)c3)nc3c2CCC3)cc1F [Example 112, 2-(4-((2-(3-Chlorophenyl)-6,7-dihydro-5H-cyclopenta[b]pyridin-4-yl)amino)-2-fluorophenyl)acetamide hydrochloride] | > 1000
